Results from patent US10563263B2, “Genetic polymorphisms associated with statin response and cardiovascular diseases, methods of detection and uses thereof” (CELERA CORPORATION, priority 2010, dated 2020).

Tested on: CVD (CHD or stroke)
Assay: WOSCOPS: SNP by pravastatin treatment interaction, logistic regression (synergy index), CVD endpoint
Format: in vivo, human
Settings: for OR: WOSCOPS; for WOSCOPS OR: endpoint CVD
Text: CARE was a secondary prevention trial and WOSCOPS was a primary prevention trial.
The CHD endpoint was defined in the analyses herein of CARE as a composite endpoint of fatal CHD, definite non-fatal MI, or revascularization, and was defined in the analyses herein of WOSCOPS as a composite endpoint of death from CHD, nonfatal MI, or revascularization. In both the CARE and WOSCOPS analyses herein, the CVD endpoint was defined as a composite endpoint of CHD or stroke. […] Revascularization, which can include percutaneous transluminal coronary angioplasty (PTCA), stent placement, and coronary artery bypass graft (CABG), are medical interventions that indicate the presence of CHD.
Cohort and case-only study designs were used to identify SNPs associated with response to statin treatment.
For each SNP, a logistic regression model having treatment status as the dependent variable and SNP as the independent predictor variable was performed, with terms for age, sex and race included in the model as covariates. The anti-log of the regression coefficient corresponding to the SNP is an estimate of the synergy index (SI) (Davis et al., “Imputing gene-treatment interactions when the genotype distribution is unknown using case-only and putative placebo analyses-a new method for the Genetics of Hypertension Associated Treatment (GenHAT) study”, Statistics in Medicine 23: (2004), pages 2413-2427). The SI is a ratio of odds ratios: for example in the CARE and WOSCOPS studies, the SI represents the factor by which the odds-ratio of statin treatment, compared with placebo, among major homozygous individuals is multiplied by in order to obtain the odds-ratio of treatment vs. placebo among heterozygous individuals; and multiplied by a second time to obtain the odds-ratio of treatment vs. placebo in minor homozygous individuals. […] In a randomized clinical trial, genotype and treatment are independent by design.

CC[C@H](C)C(=O)O[C@H]1C[C@H](O)C=C2C=C[C@H](C)[C@H](CC[C@@H](O)C[C@@H](O)CC(=O)O)[C@H]21 [Pravastatin, pravastatin]
OR (rs1884902 allele C REC Imputed): 1.796 | OR (rs1913201 allele G ADD Imputed): 0.7632 | OR (rs1913201 allele G DOM Imputed): 0.5772 | OR (rs1944279 allele A ADD Imputed): 1.444 | OR (rs1987179 allele T DOM Imputed): 0.6667 | OR (rs1990023 allele T DOM Imputed): 0.6024 | OR (rs2016194 allele G DOM Imputed): 0.602 | OR (rs2024789 allele C ADD Imputed): 0.7464 | OR (rs2024902 allele A ADD Imputed): 2.395 | OR (rs2024902 allele A DOM Imputed): 2.659 | OR (rs2025107 allele A ADD Imputed): 2.387 | OR (rs2025107 allele A DOM Imputed): 2.904 | OR (rs2025108 allele T ADD Imputed): 2.387 | OR (rs2025108 allele T DOM Imputed): 2.904 | OR (rs2062448 allele T ADD Imputed): 0.4148 | OR (rs2062448 allele T DOM Imputed): 0.4153 | OR (rs2063591 allele C ADD Imputed): 0.7711 | OR (rs2063591 allele C DOM Imputed): 0.5884 | OR (rs2065604 allele C DOM Imputed): 0.4711 | OR (rs2066238 allele T DOM Imputed): 0.6821 | OR (rs2068051 allele G ADD Imputed): 0.6426 | OR (rs2095586 allele A DOM Imputed): 1.351 | OR (rs2108426 allele C DOM Imputed): 0.5994 | OR (rs2110664 allele A DOM Imputed): 1.697 | OR (rs2132242 allele A DOM Imputed): 0.6291 | OR (rs2151644 allele T DOM Imputed): 0.4711 | OR (rs2158958 allele A DOM Imputed): 0.6021 | OR (rs2158961 allele G DOM Imputed): 0.6113 | OR (rs2164099 allele G ADD Imputed): 1.424 | OR (rs2173254 allele G REC Imputed): 0.3756 | OR (rs2188079 allele C ADD Imputed): 1.5 | OR (rs2190304 allele G REC Imputed): 0.628 | OR (rs2190597 allele T DOM Imputed): 0.7825 | OR (rs2190598 allele T DOM Imputed): 0.6021 | OR (rs2190600 allele A DOM Imputed): 0.6022 | OR (rs2218084 allele T REC Imputed): 4.673 | OR (rs2290193, rec, Caseonly, CVD, pravastatin vs placebo): 0.35 | OR (rs2626130, add, Caseonly, CVD, pravastatin vs placebo): 1.37 | OR (rs4289236, add, Caseonly, CVD, pravastatin vs placebo): 1.49 | OR (rs4611134, rec, Caseonly, CVD, pravastatin vs placebo): 1.56 | OR (rs4643388, add, Caseonly, CVD, pravastatin vs placebo): 1.38 | OR (rs6911817, add, Caseonly, CVD, pravastatin vs placebo): 5.32 | OR (rs7327364, dom, Caseonly, CVD, pravastatin vs placebo): 0.64 | OR (rs7497613, rec, Caseonly, CVD, pravastatin vs placebo): 0.43 | OR (rs7767024, add, Caseonly, CVD, pravastatin vs placebo): 1.69 | OR (rs8051893, dom, Caseonly, CVD, pravastatin vs placebo): 0.63 | OR (rs9658127, add, Caseonly, CVD, pravastatin vs placebo): 5.32 | OR (rs10088524, dom, Caseonly, CVD, pravastatin vs placebo): 1.80 | OR (rs11925875, dom, Caseonly, CVD, pravastatin vs placebo): 0.57 | OR (rs17076972 allele C REC Imputed): 1.85 | OR (rs17189710 allele T ADD Imputed): 1.429 | OR (rs17196143 allele A ADD Imputed): 1.543 | OR (rs17353809 allele G ADD Imputed): 1.616 | OR (rs17446418 allele G DOM Imputed): 0.6878 | OR (rs17530747 allele T DOM Imputed): 0.6878 | OR (rs17546598, dom, Caseonly, CVD, pravastatin vs placebo): 2.07 | OR (rs17604285 allele C ADD Imputed): 0.4148 | OR (rs17604285 allele C DOM Imputed): 0.4153 | OR (rs17662322 allele T DOM Imputed): 0.6835 | OR (rs17769826 allele T ADD Imputed): 1.616 | OR (rs17821641 allele T ADD Imputed): 1.571 | WOSCOPS OR (rs151806, source cohort, model dom): 0.67 | WOSCOPS OR (rs205279, source Caseonly, model add): 1.60 | WOSCOPS OR (rs312929, source cohort, model add): 0.79 | WOSCOPS OR (rs316720, source cohort, model add): 0.78 | WOSCOPS OR (rs354342, source Caseonly, model add): 0.62 | WOSCOPS OR (rs610118, source Caseonly, model dom): 0.62 | WOSCOPS OR (rs624460, source cohort, model add): 0.74 | WOSCOPS OR (rs669684, source cohort, model add): 0.77 | WOSCOPS OR (rs945020, source cohort, model dom): 0.72 | WOSCOPS OR (rs1035618, source Caseonly, model add): 1.48 | WOSCOPS OR (rs1051344, source cohort, model dom): 0.64 | WOSCOPS OR (rs1167245, source Caseonly, model dom): 0.51 | WOSCOPS OR (rs1349282, source cohort, model dom): 0.55 | WOSCOPS OR (rs1861326, source Caseonly, model dom): 0.67 | WOSCOPS OR (rs2023650, source Caseonly, model add): 0.62 | WOSCOPS OR (rs2145540, source Caseonly, model dom): 0.70 | WOSCOPS OR (rs2157673, source Caseonly, model add): 1.56 | WOSCOPS OR (rs2231496, source Caseonly, model add): 0.67 | WOSCOPS OR (rs2268650, source Caseonly, model dom): 0.71 | WOSCOPS OR (rs2376764, source Caseonly, model rec): 0.48 | WOSCOPS OR (rs2492367, source cohort, model add): 0.68 | WOSCOPS OR (rs2495295, source Caseonly, model dom): 0.66 | WOSCOPS OR (rs2534752, source cohort, model dom): 1.74 | WOSCOPS OR (rs2695026, source Caseonly, model add): 0.61 | WOSCOPS OR (rs2793086, source Caseonly, model add): 0.72 | WOSCOPS OR (rs2843171, source Caseonly, model dom): 0.61 | WOSCOPS OR (rs3213616, source cohort, model add): 0.62 | WOSCOPS OR (rs3798544, source Caseonly, model dom): 1.78 | WOSCOPS OR (rs4243071, source Caseonly, model rec): 0.41 | WOSCOPS OR (rs4626316, source cohort, model dom): 0.38 | WOSCOPS OR (rs4866354, source Caseonly, model dom): 0.31 | WOSCOPS OR (rs4869033, source Caseonly, model rec): 0.47 | WOSCOPS OR (rs4986146, source cohort, model add): 0.66 | WOSCOPS OR (rs4993917, source Caseonly, model dom): 0.67 | WOSCOPS OR (rs5017584, source Caseonly, model rec): 1.98 | WOSCOPS OR (rs5021480, source Caseonly, model rec): 1.87 | WOSCOPS OR (rs7179134, source cohort, model rec): 3.50 | WOSCOPS OR (rs7612715, source cohort, model add): 0.55 | WOSCOPS OR (rs7671659, source cohort, model dom): 1.43 | WOSCOPS OR (rs9292827, source Caseonly, model dom): 0.27 | WOSCOPS OR (rs9375683, source cohort, model dom): 1.31 | WOSCOPS OR (rs9487284, source cohort, model dom): 0.70 | WOSCOPS OR (rs9896077, source cohort, model dom): 0.71 | WOSCOPS OR (rs10088505, source Caseonly, model dom): 1.78 | WOSCOPS OR (rs10444402, source Caseonly, model add): 0.65 | WOSCOPS OR (rs10494924, source Caseonly, model dom): 0.68 | WOSCOPS OR (rs10517923, source Caseonly, model rec): 1.60 | WOSCOPS OR (rs10849442, source Caseonly, model rec): 0.59 | WOSCOPS OR (rs10889215, source cohort, model add): 1.95 | WOSCOPS OR (rs11076320, source Caseonly, model dom): 0.68 | WOSCOPS OR (rs11610993, source Caseonly, model dom): 0.49 | WOSCOPS OR (rs12155847, source Caseonly, model dom): 1.61 | WOSCOPS OR (rs17347854, source Caseonly, model dom): 0.62 | WOSCOPS OR (rs17740227, source Caseonly, model dom): 1.53 | WOSCOPS OR (rs33910446, source Caseonly, model rec): 2.23 | WOSCOPS OR (rs72746987, source Caseonly, model dom): 0.34
